Data reported in patent US9163013B2, “Use of 1H-indazole-3-carboxamide compounds as glycogen synthase kinase 3 beta inhibitors” (AZIENDE CHIMICHE RIUNITE ANGELINI FRANCESCO A.C.R.A.F. …, priority 2012, dated 2015).
Values joined by “and” are separate entries in the source; they are usually repeats but may differ in a detail not shown here. Identical values can stand only once. Counter-ions that a name gives are not always drawn. Like-named read-outs stand apart in the source and are kept apart here.

Experiments:
Format in all cases: biochemical
CDK2 (h) (cycA) = CDK2 (h) (cycA) (Homo sapiens (Human), UniProt P24941); experiment: Kinase selectivity panel and IC50 determination; conditions: for inhibition at 10 µM: duplicate, read-out: % inhibition of control values, CDK2 (h) (cycA)
Experimental: (§1) (a) Compound 1 was tested against a panel of 60 kinases in order to assess its selectivity. The assays were chosen taking into consideration the diversity of assay families.
(§2) Human recombinant kinases were incubated in the presence of specific peptide substrates plus ATP for different times (10, 15, 30, 60 or 90 minutes) at 22° C. Phosphorylated substrate was detected by LANCE or HTRF technology (CISBIO, MA, USA).
(§3) Compound 1 was tested at 10 μM in duplicate.
(§4) The results are expressed as a percent of inhibition of control specific activity obtained in the presence of the test compound 1 and are reported in the following Table 5.
(§5) Compound 1 was also assayed to determine the IC50 values for three different kinases (PCTAIRE1, DYRK1a, and CDK2) in comparison to Gsk3β. The assay was conducted with the same method described above in test I, second assay.
(§6) (b) Compounds 7, 12, 21 and 24 were tested against the same panel of 60 kinases under the same conditions described above for compound 1.
(§7) The results are expressed as a percent of inhibition of control specific activity obtained in the presence of the test compounds and are reported in the following Table 6.

PCTAIRE1 kinase (h) = PCTAIRE1 kinase (h) (Homo sapiens (Human), UniProt Q00536); experiment: Kinase selectivity panel and IC50 determination; conditions: for inhibition at 10 µM: duplicate, read-out: % inhibition of control values, PCTAIRE1 kinase (h)
Chain of PCTAIRE1 kinase (h) (Q00536 whole entry): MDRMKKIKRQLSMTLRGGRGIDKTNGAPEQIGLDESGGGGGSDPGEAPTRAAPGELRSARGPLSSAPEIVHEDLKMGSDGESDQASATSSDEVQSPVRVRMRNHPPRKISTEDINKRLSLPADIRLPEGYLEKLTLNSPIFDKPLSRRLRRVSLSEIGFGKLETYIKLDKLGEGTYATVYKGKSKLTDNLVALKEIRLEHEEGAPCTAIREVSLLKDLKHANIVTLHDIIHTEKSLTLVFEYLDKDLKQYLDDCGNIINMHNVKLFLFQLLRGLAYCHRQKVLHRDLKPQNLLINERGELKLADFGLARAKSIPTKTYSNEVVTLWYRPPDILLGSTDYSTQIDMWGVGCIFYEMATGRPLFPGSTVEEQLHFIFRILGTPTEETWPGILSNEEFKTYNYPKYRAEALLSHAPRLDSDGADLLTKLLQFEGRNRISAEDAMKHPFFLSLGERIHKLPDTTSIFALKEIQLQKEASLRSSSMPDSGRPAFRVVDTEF
Experimental: as §1, §2, §3, §4, §5, §6, §7

DYRK1a (h) = DYRK1a (h) (Homo sapiens (Human), UniProt Q13627); experiment: Kinase selectivity panel and IC50 determination; conditions: for inhibition at 10 µM: duplicate, read-out: % inhibition of control values, DYRK1a (h)
Experimental: as §1, §2, §3, §4, §5, §6, §7

human GSK-3β = human GSK-3β (Homo sapiens (Human), UniProt P49841); experiment: Activity on human GSK-3β, substrate phosphorylation measured by LANCE technology
Chain of human GSK-3β (P49841 whole entry): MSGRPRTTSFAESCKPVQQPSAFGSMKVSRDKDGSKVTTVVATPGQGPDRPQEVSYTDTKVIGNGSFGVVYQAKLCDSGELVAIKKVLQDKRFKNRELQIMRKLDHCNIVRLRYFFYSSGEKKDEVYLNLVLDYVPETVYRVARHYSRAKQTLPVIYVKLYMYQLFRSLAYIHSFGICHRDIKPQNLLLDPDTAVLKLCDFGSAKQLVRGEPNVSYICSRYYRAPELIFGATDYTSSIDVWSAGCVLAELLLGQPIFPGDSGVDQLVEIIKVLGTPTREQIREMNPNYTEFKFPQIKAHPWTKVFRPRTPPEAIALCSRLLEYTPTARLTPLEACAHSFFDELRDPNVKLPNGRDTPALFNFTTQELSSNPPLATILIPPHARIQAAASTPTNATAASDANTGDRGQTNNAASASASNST
Experimental: Activity on human GSK-3β was assessed using the following methods (according to Meijer et al., Chem. Biol., 2003-10:1255-1266).
In a first screening assay, compounds were tested in duplicate at a concentration of 10 μM.
Human recombinant enzyme GSK-3β was incubated for 90 minutes at 22° C. in the presence of compounds or vehicle in a reaction buffer containing ATP plus 100 nM unphosphorylated specific substrate peptide (Ulight-[…]-amide). Substrate phosphorylation was measured by LANCE technology (PerkinElmer, Conn., USA).
The results, reported in the following Table 4, are expressed as a percent of inhibition of control specific activity obtained in the presence of the test compounds (as % inhibition at 10 μm).
In a second assay, the same compounds were assayed at five concentrations ranging from 100 μM to 10 nM with ten-fold dilutions in duplicate. Compounds 1 to 7, 9, 11 and 13 to 26 were tested using the same first assay, compounds 8, 10, 12, and 27 to 31 were tested in another assay based on the binding and displacement of AlexaFluor® 647 labeled, ATP-competitive Kinase inhibitor scaffold using LanthaScreen™ TR-FRET technology Eu Kinase assay packet according to manufacturer's instruction (Life Technologies, Italy).
The IC50 values (concentration causing a half maximal inhibition of control specific activity), reported in table 4, were determined by non-linear regression analysis of the inhibition curves generated with mean replicate values using Hill equation curve fitting.

MEK1/MAP2K1 (h) = MEK1/MAP2K1 (h) (Homo sapiens (Human), UniProt Q02750); experiment: Kinase selectivity panel; conditions: duplicate, read-out: % inhibition of control values, MEK1/MAP2K1 (h)
Chain of MEK1/MAP2K1 (h) (Q02750 whole entry): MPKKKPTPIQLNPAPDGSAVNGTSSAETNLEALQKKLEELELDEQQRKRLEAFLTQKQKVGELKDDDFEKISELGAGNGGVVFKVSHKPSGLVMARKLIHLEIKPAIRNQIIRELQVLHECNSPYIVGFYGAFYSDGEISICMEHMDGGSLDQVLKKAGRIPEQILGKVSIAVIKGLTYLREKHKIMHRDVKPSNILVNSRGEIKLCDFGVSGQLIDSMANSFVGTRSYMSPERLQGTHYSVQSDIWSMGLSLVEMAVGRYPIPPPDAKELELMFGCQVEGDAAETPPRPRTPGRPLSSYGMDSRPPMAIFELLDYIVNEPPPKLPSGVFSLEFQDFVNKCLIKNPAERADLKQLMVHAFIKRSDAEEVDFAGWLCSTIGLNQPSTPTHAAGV
How it was run: (§8)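 Single-point test at 10 μM, duplicate. Recombinant human kinase + specific peptide substrate + ATP, 22° C, 10–90 min depending on kinase; LANCE or HTRF detection of phospho-substrate. Output: % inhibition of control specific activity.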

MSK1 (h) = MSK1 (h) (Homo sapiens (Human), UniProt O75582); experiment: Kinase selectivity panel; conditions: duplicate, read-out: % inhibition of control values, MSK1 (h)
Chain of MSK1 (h) (O75582 whole entry): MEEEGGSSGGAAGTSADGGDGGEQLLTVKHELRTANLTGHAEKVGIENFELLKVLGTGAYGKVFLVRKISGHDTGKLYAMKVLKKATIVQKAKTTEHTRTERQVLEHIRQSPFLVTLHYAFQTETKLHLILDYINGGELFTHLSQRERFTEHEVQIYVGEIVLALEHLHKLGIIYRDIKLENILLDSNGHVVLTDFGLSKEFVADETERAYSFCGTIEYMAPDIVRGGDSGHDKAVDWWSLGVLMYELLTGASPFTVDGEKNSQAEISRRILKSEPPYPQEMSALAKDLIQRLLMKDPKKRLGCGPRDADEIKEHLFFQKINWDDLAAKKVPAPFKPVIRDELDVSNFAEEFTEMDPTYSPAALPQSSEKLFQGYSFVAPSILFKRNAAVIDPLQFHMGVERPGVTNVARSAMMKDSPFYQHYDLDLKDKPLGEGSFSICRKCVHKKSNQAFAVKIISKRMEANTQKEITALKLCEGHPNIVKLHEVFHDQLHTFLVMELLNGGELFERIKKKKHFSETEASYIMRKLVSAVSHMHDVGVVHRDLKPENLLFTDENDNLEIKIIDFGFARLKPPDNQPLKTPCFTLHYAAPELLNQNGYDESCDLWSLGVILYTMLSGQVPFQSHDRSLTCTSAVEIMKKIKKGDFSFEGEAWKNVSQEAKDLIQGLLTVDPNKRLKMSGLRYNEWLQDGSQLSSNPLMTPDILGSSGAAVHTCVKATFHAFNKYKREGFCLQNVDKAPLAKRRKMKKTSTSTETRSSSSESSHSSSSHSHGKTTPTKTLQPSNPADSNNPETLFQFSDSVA
How it was run: as §8

mTOR kinase (h) (FRAP1) = mTOR kinase (h) (FRAP1) (Homo sapiens (Human), UniProt P42345); experiment: Kinase selectivity panel; conditions: duplicate, read-out: % inhibition of control values, mTOR kinase (h) (FRAP1)
How it was run: as §8

p38gamma kinase (h) = p38gamma kinase (h) (Homo sapiens (Human), UniProt P53778); experiment: Kinase selectivity panel; conditions: duplicate, read-out: % inhibition of control values, p38gamma kinase (h)
Chain of p38gamma kinase (h) (P53778 whole entry): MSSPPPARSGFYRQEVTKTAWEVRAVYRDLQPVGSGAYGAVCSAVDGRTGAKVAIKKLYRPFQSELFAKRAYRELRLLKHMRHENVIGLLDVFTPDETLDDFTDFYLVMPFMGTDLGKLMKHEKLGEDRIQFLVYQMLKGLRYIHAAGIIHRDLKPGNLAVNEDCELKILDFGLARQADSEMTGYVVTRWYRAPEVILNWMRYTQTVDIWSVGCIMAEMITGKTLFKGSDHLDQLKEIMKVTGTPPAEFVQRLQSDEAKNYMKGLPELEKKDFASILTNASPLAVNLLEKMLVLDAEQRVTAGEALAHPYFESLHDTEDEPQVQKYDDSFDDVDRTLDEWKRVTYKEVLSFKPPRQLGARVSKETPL
How it was run: as §8

NEK1 (h) = NEK1 (h) (Homo sapiens (Human), UniProt Q96PY6); experiment: Kinase selectivity panel; conditions: duplicate, read-out: % inhibition of control values, NEK1 (h)
How it was run: as §8

smMLCK (h) (MYLK) = smMLCK (h) (MYLK) (Homo sapiens (Human), UniProt Q15746); experiment: Kinase selectivity panel; conditions: duplicate, read-out: % inhibition of control values, smMLCK (h) (MYLK)
Chain of smMLCK (h) (MYLK) (Q15746 whole entry): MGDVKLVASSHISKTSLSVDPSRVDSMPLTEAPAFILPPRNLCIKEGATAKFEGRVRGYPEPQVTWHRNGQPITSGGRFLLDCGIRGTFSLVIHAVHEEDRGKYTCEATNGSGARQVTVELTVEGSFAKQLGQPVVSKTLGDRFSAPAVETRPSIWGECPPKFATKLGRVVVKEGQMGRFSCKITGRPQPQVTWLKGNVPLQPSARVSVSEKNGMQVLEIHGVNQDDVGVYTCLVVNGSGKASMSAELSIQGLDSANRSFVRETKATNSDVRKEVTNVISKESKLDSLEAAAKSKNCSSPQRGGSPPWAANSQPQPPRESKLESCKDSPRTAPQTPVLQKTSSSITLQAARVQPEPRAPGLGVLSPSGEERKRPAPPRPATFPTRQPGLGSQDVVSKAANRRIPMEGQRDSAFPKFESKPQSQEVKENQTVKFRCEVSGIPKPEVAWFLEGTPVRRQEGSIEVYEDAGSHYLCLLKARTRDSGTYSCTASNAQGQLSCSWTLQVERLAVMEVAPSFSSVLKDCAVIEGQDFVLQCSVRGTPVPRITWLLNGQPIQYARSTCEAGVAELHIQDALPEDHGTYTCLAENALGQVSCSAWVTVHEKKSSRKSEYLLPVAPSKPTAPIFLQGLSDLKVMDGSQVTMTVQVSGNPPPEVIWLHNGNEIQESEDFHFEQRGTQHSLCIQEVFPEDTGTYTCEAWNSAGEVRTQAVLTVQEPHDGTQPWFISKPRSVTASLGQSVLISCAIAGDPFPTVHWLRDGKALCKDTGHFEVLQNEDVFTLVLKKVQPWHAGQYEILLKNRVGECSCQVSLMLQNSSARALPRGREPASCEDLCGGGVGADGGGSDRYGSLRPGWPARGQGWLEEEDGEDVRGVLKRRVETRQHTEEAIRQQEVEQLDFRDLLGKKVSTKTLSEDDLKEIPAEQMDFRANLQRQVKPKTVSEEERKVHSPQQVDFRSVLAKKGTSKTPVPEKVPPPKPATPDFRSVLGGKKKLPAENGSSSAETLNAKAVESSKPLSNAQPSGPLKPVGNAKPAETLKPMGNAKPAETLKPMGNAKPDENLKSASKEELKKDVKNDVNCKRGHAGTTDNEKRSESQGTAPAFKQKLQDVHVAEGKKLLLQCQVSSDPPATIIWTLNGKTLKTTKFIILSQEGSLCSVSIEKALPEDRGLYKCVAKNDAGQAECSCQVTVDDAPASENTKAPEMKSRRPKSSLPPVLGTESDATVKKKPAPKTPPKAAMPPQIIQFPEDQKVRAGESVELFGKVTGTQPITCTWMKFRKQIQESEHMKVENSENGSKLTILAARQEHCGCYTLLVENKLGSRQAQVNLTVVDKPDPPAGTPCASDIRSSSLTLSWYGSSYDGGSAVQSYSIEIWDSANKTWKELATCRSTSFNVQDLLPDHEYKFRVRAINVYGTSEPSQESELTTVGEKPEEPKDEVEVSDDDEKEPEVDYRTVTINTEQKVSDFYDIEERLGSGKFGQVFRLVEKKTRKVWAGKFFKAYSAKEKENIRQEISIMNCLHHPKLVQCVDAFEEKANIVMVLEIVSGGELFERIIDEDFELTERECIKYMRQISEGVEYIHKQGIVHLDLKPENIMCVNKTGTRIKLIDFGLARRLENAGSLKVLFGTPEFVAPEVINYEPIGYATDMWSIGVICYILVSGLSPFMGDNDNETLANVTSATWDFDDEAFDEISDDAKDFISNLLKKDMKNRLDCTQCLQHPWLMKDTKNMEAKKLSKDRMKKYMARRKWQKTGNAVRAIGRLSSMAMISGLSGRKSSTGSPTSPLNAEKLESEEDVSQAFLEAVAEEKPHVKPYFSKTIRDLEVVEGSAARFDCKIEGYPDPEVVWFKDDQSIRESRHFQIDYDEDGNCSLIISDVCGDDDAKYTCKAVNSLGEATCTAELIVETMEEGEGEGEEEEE
How it was run: as §8

ERK2 (h) (P42mapk) = ERK2 (h) (P42mapk) (Homo sapiens (Human), UniProt P28482); experiment: Kinase selectivity panel; conditions: duplicate, read-out: % inhibition of control values, ERK2 (h) (P42mapk)
Chain of ERK2 (h) (P42mapk) (P28482 whole entry): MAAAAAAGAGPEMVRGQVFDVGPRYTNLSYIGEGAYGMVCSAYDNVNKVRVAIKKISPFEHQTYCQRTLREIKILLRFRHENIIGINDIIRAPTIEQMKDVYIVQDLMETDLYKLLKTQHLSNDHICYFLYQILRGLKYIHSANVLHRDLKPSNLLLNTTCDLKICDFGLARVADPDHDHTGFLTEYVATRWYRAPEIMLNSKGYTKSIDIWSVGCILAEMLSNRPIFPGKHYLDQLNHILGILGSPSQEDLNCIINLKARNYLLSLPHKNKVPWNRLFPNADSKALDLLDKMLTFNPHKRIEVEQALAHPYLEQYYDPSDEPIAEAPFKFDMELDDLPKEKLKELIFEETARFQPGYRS
How it was run: as §8

[1] = Table 5A, method of test I, second assay
[2] = 10 μM, duplicate, human recombinant GSK-3β, 90 minutes at 22° C.
[3] = LANCE phosphorylation assay, five concentrations 100 μM to 10 nM, duplicate, read-out: IC50

**Q.** Which results are given for `COc1ccc2[nH]nc(C(=O)NCC3CCN(CCc4ccc(O)cc4)CC3)c2c1` [Compound 1, N-({1-[2-(4-hydroxyphenyl)ethyl]-piperidin-4-yl}methyl)-5-methoxy-1H-indazole-3-carboxamide]?
**A.** inhibition at 10 µM (CDK2 (h) (cycA)): 27%; IC50 (CDK2 (h) (cycA); [1]): 36 µM; inhibition at 10 µM (PCTAIRE1 kinase (h)): 87%; IC50 (PCTAIRE1 kinase (h); [1]): 1.5 µM; inhibition at 10 µM (DYRK1a (h)): 63%; IC50 (DYRK1a (h); [1]): 2.9 µM; % Inhibition [10 μM] (human GSK-3β; [2]): 94%; inhibition at 10 µM (human GSK-3β; [2]): > 90%; IC50 (human GSK-3β; [3]): < 0.6 µM and 0.35 µM; IC50 (human GSK-3β; Table 5A, method of test I, second assay, read-out: IC50 [μM] Gsk3β): 0.35 µM; inhibition at 10 µM (MEK1/MAP2K1 (h)): 25%; inhibition at 10 µM (MSK1 (h)): 8%; inhibition at 10 µM (mTOR kinase (h) (FRAP1)): 0%; inhibition at 10 µM (p38gamma kinase (h)): 2%; inhibition at 10 µM (NEK1 (h)): 1%; inhibition at 10 µM (smMLCK (h) (MYLK)): 0%; inhibition at 10 µM (ERK2 (h) (P42mapk)): 33%

**Q.** How did the inhibition at 10 µM (CDK2 (h) (cycA)) turn out when `COc1ccncc1-c1ccc2[nH]nc(C(=O)NCC3CCN(Cc4ccc(C(=O)O)o4)CC3)c2c1` [Compound 21, 5-({4-[({[5-(4-Methoxypyridin-3-yl)-1H-indazol-3-yl]carbonyl}amino)methyl]piperidin-1-yl}methyl)furan-2-carboxylic acid formate] was run?
**A.** The inhibition at 10 µM was 100%.

**Q.** And the inhibition at 10 µM (PCTAIRE1 kinase (h))?
**A.** The inhibition at 10 µM was 94%.

**Q.** And the inhibition at 10 µM (DYRK1a (h))?
**A.** Its inhibition at 10 µM is 99%.

**Q.** And the IC50 (human GSK-3β; [3])?
**A.** Its IC50 is 0.01 µM.

**Q.** What about the inhibition at 10 µM (ERK2 (h) (P42mapk)) of the same molecule?
**A.** Its inhibition at 10 µM is 89%.

**Q.** Which results are given for `COc1ccc2[nH]nc(C(=O)NCC3CCN(Cc4ccc(C(=O)O)o4)CC3)c2c1` [Compound 24, 5-{[4-({[(5-Methoxy-1H-indazol-3-yl)carbonyl]amino}methyl)piperidin-1-yl]methyl}furan-2-carboxylic acid]?
**A.** inhibition at 10 µM (CDK2 (h) (cycA)): 36%; inhibition at 10 µM (PCTAIRE1 kinase (h)): 1%; inhibition at 10 µM (DYRK1a (h)): 59%; IC50 (human GSK-3β; [3]): 0.4 µM; inhibition at 10 µM (ERK2 (h) (P42mapk)): 35%
